In brackets after ≈: the same amount, converted by molar mass. Read-outs that look alike come from different tables or passages of the source.
How the values were obtained:
[1] = test system: A. baumannii A489; experiment: MIC without and with sub-inhibitory polymyxin B (Example 4); type: cell-based, Acinetobacter baumannii; details: for MIC without PB/MIC + PB: A. baumannii A489; for MIC: Acinetobacter baumannii
[2] = test system: A. baumannii A472; experiment: as above; type: cell-based, Acinetobacter baumannii; details: for MIC: Acinetobacter baumannii
[3] = test system: A. baumannii A401; experiment: as above; type: cell-based, Acinetobacter baumannii; details: A baumannii A 401; ratio, PB 0.06 μg/ml; 1st experiment
[4] = test system: A. baumannii A473; experiment: as above; type: cell-based, Acinetobacter baumannii
[5] = test system: A. baumannii A472; experiment: Preliminary MBC without and with sub-inhibitory polymyxin B (Example 4); type: cell-based, Acinetobacter baumannii; details: Acinetobacter baumannii, preliminary MBC
[6] = test system: A. baumannii NCTC 13301; experiment: MIC without and with sub-inhibitory polymyxin B (Example 4); type: cell-based, Acinetobacter baumannii
[7] = test system: A. baumannii ATCC 19606; experiment: as above; type: cell-based, Acinetobacter baumannii; details: for MIC without PB/MIC + PB: A. baumannii ATCC 19606; for MIC: Acinetobacter baumannii
[8] = test system: A. baumannii NCTC 13301; experiment: as above; type: cell-based, Acinetobacter baumannii; remark: listed apart in the source
[9] = test system: A. baumannii J2; experiment: Preliminary MBC without and with sub-inhibitory polymyxin B (Example 4); type: cell-based, Acinetobacter baumannii; details: Acinetobacter baumannii, preliminary MBC
[10] = test system: Acinetobacter sp. (H064200250); experiment: MIC without and with sub-inhibitory polymyxin B (Example 4); type: cell-based
[11] = test system: A. baumannii J2; experiment: as above; type: cell-based, Acinetobacter baumannii; details: for MIC without PB/MIC + PB: A. baumannii J2; for MIC: Acinetobacter baumannii
[12] = test system: A. baumannii A387; experiment: as above; type: cell-based, Acinetobacter baumannii; details: for MIC without PB/MIC + PB: A. baumannii A387
[13] = test system: A. baumannii A14; experiment: Preliminary MBC without and with sub-inhibitory polymyxin B (Example 4); type: cell-based, Acinetobacter baumannii; details: A. baumannii A14, +0.06 μg/ml PB, 2nd experiment
Experimental: (§1) The plates were incubated for 18-20 hours at 37° C. The MBC was read as the lowest concentration at which colony growth was ca. 90% less than the positive control (i.e. usually where single colonies or no colonies were observed).

[14] = test system: A. baumannii A390; experiment: as above; type: cell-based, Acinetobacter baumannii; details: Acinetobacter baumannii, A390, A. baumannii A390, +0.06 μg/ml PB, 2nd experiment, read-out: MBC
Experimental: as §1

[15] = test system: A. baumannii NCTC 13301; experiment: as above; type: cell-based, Acinetobacter baumannii; details: Acinetobacter baumannii
Experimental: as §1

[16] = test system: A. baumannii A473; experiment: as above; type: cell-based, Acinetobacter baumannii; details: Acinetobacter baumannii, A473, A. baumannii A473, +0.06 μg/ml PB, 2nd experiment, read-out: MBC
Experimental: as §1

[17] = test system: A. baumannii A14; experiment: MIC without and with sub-inhibitory polymyxin B (Example 4); type: cell-based, Acinetobacter baumannii; details: 1st experiment
[18] = test system: A. baumannii A387; experiment: Preliminary MBC without and with sub-inhibitory polymyxin B (Example 4); type: cell-based, Acinetobacter baumannii; details: Acinetobacter baumannii, A387, A. baumannii A387, +0.06 μg/ml PB, 2nd experiment, read-out: MBC
[19] = test system: strains of A. baumannii and one strain of Acinetobacter sp.; experiment: MIC with sub-inhibitory concentrations (0.25x MIC) of polymyxin B, panel of Acinetobacter strains (Example 4); type: cell-based
[20] = test system: A. baumannii A390; experiment: MIC without and with sub-inhibitory polymyxin B (Example 4); type: cell-based, Acinetobacter baumannii; details: +0.06 μg/ml PB, 2nd experiment
[21] = test system: A. baumannii ATCC 19606; experiment: Preliminary MBC without and with sub-inhibitory polymyxin B (Example 4); type: cell-based, Acinetobacter baumannii; details: Acinetobacter baumannii
[22] = test system: Acinetobacter sp. (H064200250); experiment: as above; type: cell-based; details: Acinetobacter, preliminary MBC
Experimental: as §1

[23] = ratio, PB 0.06 μg/ml, 1st experiment

NCC[C@H](O)C(=O)N[C@@H]1C[C@H](N)[C@@H](O[C@H]2O[C@H](CN)[C@@H](O)[C@H](O)[C@H]2O)[C@H](O)[C@H]1O[C@H]1O[C@H](CO)[C@@H](O)[C@H](N)[C@H]1O [Amikacin, reference compound]
MIC without PB/MIC + PB ([1]; +[…] PB, 2nd experiment): ≥2 | MIC without PB/MIC + PB ([1]; ratio, PB […], 1st experiment): ≥1 | MIC ([1]; A489, A. baumannii A489, +[…] PB, 2nd experiment, read-out: MIC): 64 µg/mL (≈ 109 µM) | MIC ([1]; A489, read-out: MIC +[…] PB, A. baumannii A489, +[…] polymyxin B, 1st experiment): 128 µg/mL (≈ 219 µM) | MIC without PB/MIC + PB ([2]; A. baumannii A472, ratio, PB […], 1st experiment): ≥8 | MIC ([2]; A472, A. baumannii A472, +[…] PB, 2nd experiment, read-out: MIC): 32 µg/mL (≈ 54.6 µM) | MIC ([2]; A472, read-out: MIC +[…] PB, A. baumannii A472, +[…] polymyxin B, 1st experiment): 16 µg/mL (≈ 27.3 µM) | MIC without PB/MIC + PB [3]: ≥1 | MIC without PB/MIC + PB ([4]; A. baumannii A473, +0.06 μg/ml PB, 2nd experiment): ≥1 | MIC ([4]; Acinetobacter baumannii, A473): 128 µg/mL (≈ 219 µM) | MBC ([5]; A472, A. baumannii A472, +[…] PB, 2nd experiment, read-out: MBC): 32 µg/mL (≈ 54.6 µM) | MBC ([5]; A472, read-out: MBC +[…] PB, A. baumannii A472, +[…] polymyxin B, 1st experiment): 32 µg/mL (≈ 54.6 µM) | MIC without PB/MIC + PB ([6]; A. baumannii NCTC 13301, ratio, PB […], 1st experiment): ≥1 | MIC ([6]; Acinetobacter baumannii, NCTC13301, read-out: MIC +[…] PB): > 128 µg/mL | MIC without PB/MIC + PB ([7]; +0.06 μg/ml PB, 2nd experiment): 2 | MIC without PB/MIC + PB [7, 23]: 2 | MIC ([7]; ATCC19606, A. baumannii ATCC 19606, +0.06 μg/ml PB, 2nd experiment, read-out: MIC): 8 µg/mL (≈ 13.7 µM) | MIC ([7]; ATCC19606, read-out: MIC +0.06 μg/ml PB, A. baumannii ATCC 19606, +0.06 μg/ml polymyxin B, 1st experiment): 8 µg/mL | MIC without PB/MIC + PB ([8]; A. baumannii NCTC 13301, +[…] PB, 2nd experiment): ≥1 | MIC ([8]; Acinetobacter baumannii, NCTC13301): 128 µg/mL (≈ 219 µM) | MBC ([9]; J2, A. baumannii J2, +[…] PB, 2nd experiment, read-out: MBC): 0.5 µg/mL (≈ 0.854 µM) | MBC ([9]; J2, read-out: MBC +[…] PB, A. baumannii J2, +[…] polymyxin B, 1st experiment): 4 µg/mL (≈ 6.83 µM) | MIC without PB/MIC + PB ([10]; Acinetobacter spp. H064200250 (OXA51), +[…] PB, 2nd experiment): 8 | MIC without PB/MIC + PB ([10]; Acinetobacter spp. H064200250, ratio, PB […], 1st experiment): 1 | MIC ([10]; Acinetobacter, Acinetobacter spp. H064200250 (OXA51), +[…] PB, 2nd experiment, read-out: MIC): 1 µg/mL (≈ 1.71 µM) | MIC without PB/MIC + PB ([11]; +[…] PB, 2nd experiment): 16 | MIC without PB/MIC + PB ([11]; ratio, PB […], 1st experiment): 8 | MIC ([11]; J2, A. baumannii J2, +[…] PB, 2nd experiment, read-out: MIC): 0.5 µg/mL (≈ 0.854 µM) | MIC ([11]; J2, read-out: MIC +[…] PB, A. baumannii J2, +[…] polymyxin B, 1st experiment): 4 µg/mL (≈ 6.83 µM) | MIC without PB/MIC + PB ([12]; +0.06 μg/ml PB, 2nd experiment): ≥1 | MIC without PB/MIC + PB [12, 23]: ≥1 | MIC ([12]; Acinetobacter baumannii, A387): 128 µg/mL (≈ 219 µM) | MBC [13]: 8 µg/mL (≈ 13.7 µM) | MBC [14]: 64 µg/mL (≈ 109 µM) | MBC ([15]; NCTC13301, A. baumannii NCTC 13301, +[…] PB, preliminary MBC, 2nd experiment, read-out: MBC): 64 µg/mL (≈ 109 µM) | MBC ([15]; NCTC13301, read-out: MBC +[…] PB): > 128 µg/mL | MBC [16]: 128 µg/mL (≈ 219 µM) | MIC +0.06 μg/ml PB ([17]; +0.06 μg/ml polymyxin B): 16 µg/mL | MIC without PB/MIC + PB ([17]; ratio, PB 0.06 μg/ml): 2 | MBC [18]: 128 µg/mL (≈ 219 µM) | Change of activity (MIC) in presence of polymyxin B compared to without polymyxin B [19]: not significantly affected | Range ratios MIC without PB/MIC with PB Oct. 14, 2008 n = 11 ([19]; 2nd experiment): 1-16 | MIC without PB/MIC + PB ([20]; A. baumannii A390): ≥2 | MIC ([20]; Acinetobacter baumannii, A390, A. baumannii A390, read-out: MIC): 64 µg/mL (≈ 109 µM) | MBC ([21]; ATCC19606, A. baumannii ATCC 19606, +0.06 μg/ml PB, 2nd experiment, read-out: MBC): 8 µg/mL (≈ 13.7 µM) | MBC ([21]; ATCC19606, read-out: MBC +0.06 μg/ml PB, A. baumannii ATCC 19606, +0.06 μg/ml polymyxin B, 1st experiment): 8 µg/mL | MBC ([22]; Acinetobacter spp. H064200250 (OXA51), +[…] PB, 2nd experiment, read-out: MBC): 1 µg/mL (≈ 1.71 µM) | MBC ([22]; read-out: MBC +[…] PB, Acinetobacter spp. H064200250, +[…] polymyxin B, 1st experiment): 64 µg/mL (≈ 109 µM)
